{"source": "paper PMC11017252", "about": "“Copper(II) Complexes with 2,2′:6′,2″-Terpyridine Derivatives Displaying Dimeric Dichloro−μ–Bridged Crystal Structure: Biological Activities from 2D and 3D Tumor Spheroids to In Vivo Models” (Journal of Medicinal Chemistry, 2024)", "key": {"[1]": {"test_system": "CAM", "set-up": "method as in PMID 33823390", "conditions": "cited from earlier work"}, "[2]": {"test_system": "HCT116DoxR cells", "experiment": "Annexin V-FITC/PI apoptosis assay by flow cytometry", "conditions": "48 h, complexes at IC50, Dox 6 μM, cisplatin 5 μM", "protocol": "To evaluate the cell death mechanism involved in the cytotoxic effect of the selected complexes, a double-staining with Annexin V-FITC and PI was performed. […] The use of Annexin V conjugated with the fluorophore FITC allows the quantification of this interaction and subsequent identification of cells in apoptosis by flow cytometry. Furthermore, PI is a fluorophore that can intercalate with DNA and that can only enter the cell when the membrane is either compromised or ruptured, making it possible to identify cells undergoing late apoptosis and necrosis. Therefore, the double staining makes it possible to distinguish between viable cells (FITC^–; IP^–), those undergoing initial apoptosis (FITC^+; IP^–), those undergoing late apoptosis (FITC^+; IP^+), and those undergoing necrosis (FITC^–; IP^+).[55],[58]\nEvaluation of apoptosis induction in HCT116DoxR cell line by flow cytometry The induction of apoptosis in HCT116DoxR cell line was evaluated by flow cytometry, using the\nAnnexin V-FITC Apoptosis Detection Kit (Thermo Fisher Scientific, Waltham, MA, USA). Cells\nwere seeded in 6-well plates at a cell density of 1×10^5 cells/mL and incubated for 24 h. Afterwards,\nculture medium was replaced by medium with different Cu(II) complexes at their IC50 concentrations.\nAfter 48 h of incubation, cells were washed with PBS 1x, detached from each well with TrypLETM\nExpress and washed again with PBS 1x. Cells were then resuspended in 1x annexin-binding buffer and\nincubated at rt for 15 min with Annexin V-FITC and 100 μg/mL PI.\nAll samples were analysed by an Attune® Acoustic Focusing Flow Cytometer (Thermo Fischer\nScientific, Waltham, MA, USA) and the results were processed with Attune® Cytometric software"}, "[3]": {"test_system": "HCT116DoxR (Dox-resistant colorectal carcinoma cell line)", "conditions": "cited from earlier work"}, "[4]": {"test_system": "HCT116DoxR cells", "experiment": "Cellular senescence (β-galactosidase, flow cytometry)", "conditions": "48 h; complexes at IC50, cisplatin 5 μM, Dox 6 μM", "protocol": "Given the ability of the Cu(II) complexes to interfere with the progression of the cell cycle, the senescence of HCT116DoxR cells was analyzed after 48 h of exposure to their IC50 concentrations. […] To study the senescence-inducing capacity of the complexes, the activity of β-galactosidase, whose increased expression is associated with senescence, was quantified by flow cytometry (Figure 16).[73]\n(§1) HCT116DoxR cell line was seeded in 6-well plates in a density of 1×10^5 cells/mL and incubated for\n(§2) 24 h. Afterwards, the culture medium was replaced by medium with IC50 concentrations of different\n(TBHP) were used as controls. After an incubation period of 48 h, cells were washed with PBS 1x, detached with TrypLETM Express and washed again with PBS 1x."}, "[5]": {"test_system": "HCT116 (colorectal carcinoma cell line)", "experiment": "MTS cell viability assay, 2D culture, HCT116", "format": "cell-based, human", "protocol": "(§3) The in vitro cytotoxic potential of Cu(II) complexes in tumor and healthy cells was assessed using the MTS assay, a colorimetric method that allows the quantification of viable cells in culture.[46]\nCell culture and maintenance\n(§4) The cancer cell lines HCT116 (colorectal carcinoma) and A2780 (ovarian carcinoma) were obtained\n(§5) from the American Type Culture Collection (ATCC®, Manassas, VA, USA), as well as the normal\nhuman primary dermal fibroblasts.\n(§6) Apart from the A2780 cell line, which was cultured in Roswell Park Memorial Institute (RPMI)\n(§7) medium, all cells were cultured in Dulbecco’s modified Eagle medium (DMEM). Both media were\n(§8) supplemented with 10% (v/v) fetal bovine serum (FBS) and 1% (v/v) of a Pen/Strep\n(§9) (Penicillin/Streptomycin) solution. To maintain the resistant phenotype of the HCT116DoxR cell line,\n(§10) the medium was additionally supplemented with 3.6 μM Dox4. All media and supplements were\n(§11) purchased from Thermo Fischer Scientific (Waltham, MA, USA).\n(§12) Cells were maintained in 25 cm2 T-flasks (T25) in a humidified atmosphere at 37 °C and 5% (v/v) CO\n(§13) (SANYO CO2 Incubator, Electric Biomedical Co., Osaka, Japan).\n(§14) The effect of Cu(II) complexes on cell viability was studied in HCT116, HCT116DoxR, and A2780\n(§15) cancer cell lines and in normal human primary fibroblasts. Cells were seeded in a density of 0.75×105\n(§16) cells/mL into 96-well plates and incubated in a humidified atmosphere at 37 °C and 5% (v/v) CO2 for\n(§17) 24 h. After incubation, complexes were weighed, immediately solubilized in 100% (v/v) DMSO and\n(§18) diluted for the final concentration with cell culture medium. The medium in each well was replaced by\n(§19) a solution of fresh medium containing each Cu(II) complex (concentrations ranging from 0.01 μM to\n(§20) as negative and positive controls, respectively.\n(§21) Following a second incubation period of 48 h in the same conditions, the supernatant of each well was\n(§22) replaced by a solution containing MTS reagent (3-(4,5-dimethylthiazol-2-yl)-5-(3-\n(§23) carboxymethoxyphenyl)-2-(4-sulfophenyl)-2H-tetrazolium) provided by the CellTiter 96® AQueous\n(§24) Non-Radioactive Cell Proliferation Assay Kit (Promega, Madison, WI, EUA) for a 30 minutes\n(§25) incubation. The percentage of viable cells was indirectly determined by the spectrophotometric\n(§26) quantification at 490 nm in a microplate reader, Tecan Infinite M200 (Tecan, Männedorf, Switzerland)\n(§27) of formazan production, resultant from the reduction of the MTS reagent by mitochondrial\n(§28) dehydrogenases. Since these enzymes are only active in viable cells, the absorbance value measured is\n(§29) directly proportional to the percentage of viable cells in culture5.\n(§30) By analysing the cell viability as a function of log10(concentration) using Prism 8 (GraphPad\n(§31) in cell viability) of each complex in the respective cell line at 48 h. The selective index (SI) for each\n(§32) complex was also determined by dividing the IC50 of human fibroblasts by the respective IC50 in each\n(§33) cancer cell line (allowing us to understand how much active a complex is in tumor versus normal cell)."}, "[6]": {"test_system": "HCT116DoxR cells", "experiment": "Cell cycle progression (PI, flow cytometry)", "quoted_text": "Therefore, we have assessed the cytostatic potential of complexes 2, 3, 5, and 7, and their ability to interfere with the progression of the cell cycle using the fluorescent marker PI. Since this marker can intercalate with DNA, the measurement of the fluorescence emitted by flow cytometry makes it possible to assess the DNA content at each stage of the cell cycle (G0/G1, S, and G2/M).[67] To ensure that all the cells were in the same phase before their exposure to the complexes, a double block was carried out with thymidine, a DNA synthesis inhibitor.[67]\nas §1, §2\nHCT116DoxR cell line was seeded in 6-well plates in a density of 1×10^5 cells/mL, incubated for 8 h in\na humidified atmosphere at 37 °C and 5% (v/v) CO2, and later synchronized in early S-phase with a 2\nmM thymidine solution (Merck, Germany) for a 16 h period. Later, medium with thymidine was\nreplaced by fresh media and, after 8 h a second block with thymidine was performed in the same\nconcentrations of Cu(II) complexes. 0.1% (v/v) DMSO was used as the vehicle control while 5 μM\nAfter treatment, cells were incubated for 9, 12,"}, "[7]": {"test_system": "A2780 (ovarian carcinoma cell line)", "experiment": "MTS cell viability assay, 2D culture, A2780", "format": "cell-based, human", "protocol": "as §3\nCell culture and maintenance\nas §4, §5\nhuman primary dermal fibroblasts.\nas §6, §7, §8, §9, §10, §11, §12, §13, §14, §15, §16, §17, §18, §19, §20, §21, §22, §23, §24, §25, §26, §27, §28, §29, §30, §31, §32, §33"}, "[8]": {"test_system": "caspase-8", "experiment": "Caspase-8 activity (IETD-pNA cleavage)", "format": "cell-based, human", "conditions": "HCT116DoxR, 48 h; complexes at IC50, cisplatin 5 μM", "description": "In this assay, the chromogenic substrate IETD-pNA, resulting from the conjugation between the peptide IETD (Ile-Glu-Thr-Asp) and the chromophore pNA (p-nitroanilide), is cleaved by caspase-8, releasing the chromophore, which is detected by measuring absorbance at 400 nm.[48] […]\ntreated with ECLTM Prime Western Blotting Detection Reagents (Cytiva, United Kingdom) for 5 min and exposed to a film in a dark room. Membranes were later incubated (with agitation) twice with Stripping buffer (0.1M glycine, 20 mM magnesium acetate, 50 mM KCl, pH 2.0) during 10 and 20 min, respectively, and subsequently incubated with anti-β-actin (1:5000; Sigma, St. Louis, USA) as a control to normalize the results. Proteins were quantified by densitometry using Image J software.\nThe Caspase-8 activity in HCT116DoxR cells exposed to Cu(II) complexes was evaluated using the Caspase-8 Assay kit (ab39700) (Abcam, Cambridge, United Kingdom). […]\nThe plate was then incubated for 2 h at 37°C, after which, absorbance was read at 400 nm on a Tecan Infinite M200 microplate reader (Männedorf, Switzerland).\nΔΨm was evaluated in HCT116DoxR cell line by using the JC-1 Mitochondrial Membrane Potential Assay Kit (Abnova Corporation, Walnut, CA, USA). […]\nAutophagy induction in HCT116DoxR cell line was evaluated using the Autophagy Assay Kit (ab139484) (Abcam, Cambridge, United Kingdom) according to the manufacturers’ instructions. […]"}, "[9]": {"test_system": "normal human primary dermal fibroblasts", "set-up": "method as in PMID 29688241", "conditions": "48 h; previously obtained; cited from earlier work"}, "[10]": {"test_system": "HCT116DoxR (Dox-resistant colorectal carcinoma cell line)", "experiment": "MTS cell viability assay, 2D culture, HCT116DoxR", "conditions": "read-out: IC50 (μM) HCT116DoxR, 48 h of exposure", "protocol": "as §3\nIn this regard, cell viability was performed for each of the ligands on HCT116DoxR and fibroblasts.\nCell culture and maintenance\nas §4, §5\nhuman primary dermal fibroblasts.\nas §6, §7, §8, §9, §10, §11, §12, §13, §14, §15, §16, §17, §18, §19, §20, §21, §22, §23, §24, §25, §26, §27, §28, §29"}}, "note": "Read-outs that look alike come from different tables or passages of the source."}
{"smiles": "F[P-](F)(F)(F)(F)F.[Cl][Cu].c1ccc(-c2cc(-c3ccc4ccccc4n3)cc(-c3ccccn3)n2)nc1", "note": "[[Cu(4′-(2-quinolinyl)-terpy)Cl](PF6)]", "values": [{"measurement": "toxicity in an in vivo model of CAM", "setting": "[1]", "value": "low toxicity"}]}
{"smiles": "COc1cccc2c1C(=O)c1c(O)c3c(c(O)c1C2=O)C[C@@](O)(C(=O)CO)C[C@@H]3O[C@H]1C[C@H](N)[C@H](O)[C@H](C)O1", "note": "[Dox, doxorubicin, reference compound]", "values": [{"measurement": "cells (%) early apoptosis", "setting": "[2]", "value": "16.6 ± 5.5", "unit": "%"}, {"measurement": "cells (%) late apoptosis", "setting": "[2]", "value": "13.9 ± 1.9", "unit": "%"}, {"measurement": "cells (%) necrosis", "setting": "[2]", "value": "9.8 ± 4.0", "unit": "%"}, {"measurement": "cells (%) viable", "setting": "[2]", "value": "59.8 ± 3.8", "unit": "%"}, {"measurement": "percentage of apoptosis (early + late)", "setting": "[2]", "value": "~31", "unit": "%"}, {"measurement": "viability at 6 µM", "setting": "[2]; Homo sapiens, read-out: cells (%) viable, 48 h", "value": "~60", "unit": "%"}, {"measurement": "IC50", "setting": "[3]", "value": "> 6", "unit": "µM"}, {"measurement": "induction of cellular senescence compared to DMSO control", "setting": "[4]", "value": "did not induce an increase in cellular senescence"}, {"measurement": "IC50", "setting": "[5]; Homo sapiens, HCT-116, 48 h of exposure", "value": "0.5 ± 0.1", "unit": "µM"}, {"measurement": "cell cycle arrest in the G2/M phase", "setting": "[6]; Dox 6 μM, 9–24 h", "value": "not verified"}, {"measurement": "IC50", "setting": "[7]; Homo sapiens, A2780, 48 h of exposure", "value": "0.1 ± 0.04", "unit": "µM"}]}
{"smiles": "N.N.[Cl][Pt][Cl]", "note": "[cisplatin, reference compound]", "values": [{"measurement": "cells (%) early apoptosis", "setting": "[2]", "value": "47.5 ± 7.2", "unit": "%"}, {"measurement": "cells (%) late apoptosis", "setting": "[2]", "value": "19.8 ± 5.9", "unit": "%"}, {"measurement": "cells (%) necrosis", "setting": "[2]", "value": "0.1 ± 0.1", "unit": "%"}, {"measurement": "percentage of apoptosis (early + late)", "setting": "[2]", "value": "65 to 70", "unit": "%"}, {"measurement": "induction of cellular senescence compared to DMSO control", "setting": "[4]", "value": "induce cellular senescence"}, {"measurement": "IC50", "setting": "[5]; 48 h of exposure", "value": "15.6 ± 5.3", "unit": "µM"}, {"measurement": "cell cycle progression after 24 h", "setting": "[6]; 24 h, complexes at IC50, cisplatin 5 μM", "value": "delay the cycle in the G2/M phase"}, {"measurement": "increase in caspase-8 activity compared to vehicle control (DMSO)", "setting": "[8]", "value": "2- to 3 fold"}, {"measurement": "IC50", "setting": "[7]; 48 h of exposure", "value": "1.9 ± 0.2", "unit": "µM"}]}
{"smiles": "COc1ccc(-c2cc(-c3ccccn3)nc(-c3ccccn3)c2)c2ccccc12", "note": "[L3]", "values": [{"measurement": "IC50", "setting": "[9]", "value": "0.95 ± 0.08", "unit": "µM"}, {"measurement": "IC50", "setting": "[10]", "value": "0.2 ± 0.02", "unit": "µM"}]}
